Tests used:
Format in all cases: cell-based
[1] = test system: GP2d cells; experiment: Inhibition of 3D proliferation of GP2d cells; conditions: 120 h, CellTiter-Glo 3D
Description: (§1) The inhibitory effect of compound 1-p1 on the KRAS target was evaluated by assessing the inhibitory effect of compound 1-p1 on the 3D proliferation of GP2d and AGS cells.
(§2) GP2d cells (Nanjing Cobioer, CBP60010) were cultured in a complete culture medium, namely a DMEM/high glucose culture medium (Hyclone, SH30243.01) containing 10% fetal bovine serum (Corning, 35-076-CV). On the first day of the experiment, the GP2d cells were seeded into a 96-well low-adsorption plate (Corning, CLS7007-24EA) with a complete culture medium at a density of 1000 cells/well, with each well containing 90 μL of a cell suspension. The plate was centrifuged at 2000 rpm for 5 min at room temperature and then incubated overnight in a 5% CO2 cell incubator at 37° C.
(§3) The next day, the test compound, serially diluted in a complete culture medium, was added at 10 μL/well. The final concentrations of the compound for GP2d cells were 9 concentration points obtained by 3-fold serial dilution from 1 μM, and the final concentrations of the compound for AGS cells were 9 concentration points obtained by 3-fold serial dilution from 10 μM. A blank control containing 0.5% DMSO was set for both types of cells. […] The luminescence signal values were obtained using a multi-mode microplate reader (PerkinElmer, ENVISION).
(§4) The IC50 values for the inhibitory activity of the compound were calculated using Graphpad Prism software.

[2] = test system: AGS cells; experiment: Inhibition of 3D proliferation of AGS cells; conditions: Homo sapiens, 120 h, CellTiter-Glo 3D
Description: as §1
as §2, with “AGS” for “GP2d”, “CBP60476)” for “CBP60010)”, “an RPMI1640” for “a DMEM/high glucose”, “SH30809.01)” for “SH30243.01)”
as §3, §4

[3] = test system: ERK phosphorylation in AGS cells; experiment: Inhibition of ERK phosphorylation in AGS cells (HTRF method); conditions: Homo sapiens, 1 h incubation, phosphorylated ERK/total ERK ratio
Description: In the experiment, the inhibitory effect of the compound on the KRAS target was evaluated by assessing the inhibitory effect of compound 1-p1 on ERK phosphorylation in cells and based on the IC50 value.
AGS cells (Nanjing Cobioer, CBP60476) were cultured in an RPMI1640 (Hyclone, SH30809.01) complete culture medium containing 10% fetal bovine serum. On the first day of the experiment, the AGS cells were seeded into a 96-well plate with a complete culture medium at a density of 40000 cells/well, with each well containing 190 μL of a cell suspension. The plate was incubated overnight in a 5% CO2 cell incubator at 37° C.
The next day, the test compound, serially diluted in a complete culture medium, was added at 10 μL/well. The final concentrations of the compound were 9 concentration points obtained by 5-fold serial dilution from 10 μM. A blank control containing 0.5% DMSO was set. The plate was incubated in a 5% CO2 cell incubator at 37° C. for 1 h. […]
On the third day, the fluorescence values at an excitation wavelength of 337 nm and emission wavelengths of 665 nm and 620 nm were obtained using an ENVISION multi-mode microplate reader (PerkinElmer, ENVISION).
The IC50 value for the inhibitory activity of the compound was calculated using Graphpad Prism software based on the compound concentration and the phosphorylated ERK/total ERK ratio.

## CCc1c(F)ccc2cc(O)cc(-c3nc4c5c(nc(OC[C@@]67CCCN6C[C@H](F)C7)nc5c3F)N3C[C@H]5CC[C@H](N5)[C@H]3CO4)c12 [Compound 1-p1, 5-Ethyl-6-fluoro-4-((5aS,6S,9R)-1-fluoro-12-(((2R,7aS)-2-fluorotetrahydro-1H-pyrrolizin-7a(5H)-yl)methoxy)-5a,6,7,8,9,10-hexahydro-5H-4-oxa-3,10a,11,13,14-pentaaza-6,9-methanonaphtho[1,8-ab]heptalen-2-yl)naphthalen-2-ol]
[1]
  IC50: 0.9 nM
[2]
  IC50: 5.8 nM
[3]
  IC50: 0.4 nM

From patent US20260209250A1, “CRYSTAL FORM OF KRAS G12D INHIBITOR AND PREPARATION METHOD THEREFOR” (priority 2022, published 2026)
